Results on eight molecules are retold here after patent US11117915B2, “Antibacterial aminoglycoside analogs” (Cipla USA, Inc., priority 2007, dated 2021).

Assay [1] concerns E. coli ATCC 25922. The experiment in a line: MIC assay, CLSI broth microdilution, E. coli ATCC 25922 (AECO001). The assay is classed as cell-based. The note with it: for MIC: Escherichia coli. The procedure, abridged:
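Bacteria from overnight agar colonies, suspended in saline, added to serial two-fold dilutions in Mueller Hinton Broth at 5×10^5 CFU/mL final. Incubation 35° C., 20 hours, ambient air, per CLSI M7-A7 reference method.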
For orientation: Dilution methods test growth across graded concentrations, often in twofold steps.

Assay [2] deals with P. aeruginosa ATCC 27853. The experiment in a line: MIC assay, CLSI broth microdilution, P. aeruginosa ATCC 27853 (APAE001). It counts as cell-based. The note with it: for MIC: Pseudomonas aeruginosa. The procedure, abridged:
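Test compounds were diluted two-fold at 2× strength in Mueller Hinton Broth, then combined 1:1 with saline-suspended bacteria from an overnight agar colony to reach 5×10^5 CFU/mL. Incubation followed at 35° C. for 20 hours in ambient air, per CLSI reference methods.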

In assay [3] the test system is E. coli ATCC 25922. As to the kind of experiment: murine septicemia model of infection, E. coli. The assay is classed as in vivo. To be noted: mice inoculated IP, single SC or IV dose 1 hour after challenge, mortality 7 days; ED50 values are mg/kg. The protocol:
(§1) Two models were run on each compound, using E. coli and P. aeruginosa QC bacterial strains. Both studies employed the same design. […] At 1 hour after bacterial challenge, the mice received a single SC or IV […] dose of vehicle or test substance to assess in vivo anti-infective activity. Mortality was recorded once daily for 7 days after bacterial inoculation.

Assay [4] has as its system P. aeruginosa ATCC 27853. As to the kind of experiment: murine septicemia model of infection, P. aeruginosa. The assay is classed as in vivo. The note with it: mice inoculated IP, single SC or IV dose 1 hour after challenge, mortality 7 days; ED50 values are mg/kg. The protocol: as §1
The mark [5] stands for this setting: ATCC27853, Table 2, read-out: MIC P. aeruginosa.
[6] abbreviates: AECO001 is ATCC25922, 35° C., 20 hours, read-out: MIC AECO001.
[7] abbreviates: APAE001 is ATCC27853, 35° C., 20 hours, read-out: MIC APAE001.

≈ marks a conversion by molar mass, not a printed value. Like-named read-outs stand apart in the source and are kept apart here.

By MIC is commonly meant the lowest concentration found to suppress growth. As for `NCC[C@H](O)C(=O)N[C@@H]1C[C@H](N)[C@@H](O[C@H]2O[C@H](CN)[C@@H](O)[C@H](O)[C@H]2O)[C@H](O)[C@H]1O[C@H]1O[C@H](CO)[C@@H](O)[C@H](N)[C@H]1O` [Amikacin, amikacin, reference compound], the MIC in the assay with E. coli ATCC 25922 [1] (ATCC25922, Table 2, read-out: MIC E. coli) lay in the range of 1 to 16 µg/mL (≈ 1.71 to 27.3 µM); with P. aeruginosa ATCC 27853 [2] (setting [5]), 1 to 16 µg/mL (≈ 1.71 to 27.3 µM). Further, in the assay on E. coli ATCC 25922 [3], the “ED50/MIC E. Coli” value is listed as 1.5. Also, the “ED50/MIC P. aeruginosa” value with P. aeruginosa ATCC 27853 [4] was determined as 13.
Regarding `CN[C@@H]1[C@@H](O)[C@@H](O[C@@H]2[C@@H](O)[C@H](O[C@H]3OC(CNCCO)=CC[C@H]3N)[C@@H](N)C[C@H]2NC(=O)[C@@H](O)CCN)OC[C@]1(C)O` [Example 1, 6′-(2-Hydroxy-ethyl)-1-(4-amino-2(S)-hydroxy-butyryl)-sisomicin], the MIC with E. coli ATCC 25922 [1] (setting [6]) was under 1 µg/mL; in the assay on P. aeruginosa ATCC 27853 [2] (setting [5]), 1 to 16 µg/mL (≈ 1.69 to 27 µM); in the assay on P. aeruginosa ATCC 27853 [2] (setting [7]), 1 to 16 µg/mL (≈ 1.69 to 27 µM). Besides, the “ED50/MIC E. Coli” value in the assay on E. coli ATCC 25922 [3] is recorded as under 2. The “ED50/MIC P. aeruginosa” value in the assay on P. aeruginosa ATCC 27853 [4] is given as 4.
Take `CN[C@@H]1[C@@H](O)[C@@H](O[C@@H]2[C@@H](O)[C@H](O[C@H]3OC(CNCCO)=CC[C@H]3N)[C@@H](N)C[C@H]2NC(=O)[C@@H](O)CN)OC[C@]1(C)O` [Example 16, 6′-(2-Hydroxy-ethyl)-1-(3-amino-2(S)-hydroxy-propionyl)-sisomicin]: the MIC is under 1 µg/mL in the assay with E. coli ATCC 25922 [1] (setting [6]), 1 to 16 µg/mL (≈ 1.73 to 27.6 µM) with P. aeruginosa ATCC 27853 [2] (setting [5]) and 1 to 16 µg/mL (≈ 1.73 to 27.6 µM) in the assay with P. aeruginosa ATCC 27853 [2] (setting [7]). Moreover, the “ED50/MIC E. Coli” value in the assay on E. coli ATCC 25922 [3] is 1. Also, the “ED50/MIC P. aeruginosa” value in the assay on P. aeruginosa ATCC 27853 [4] turned out to be 3.
Turning to `CN[C@@H]1[C@@H](O)[C@@H](O[C@@H]2[C@@H](O)[C@H](O[C@H]3OC(CNCCCN)=CC[C@H]3N)[C@@H](N)C[C@H]2NC(=O)[C@@H](O)CN)OC[C@]1(C)O` [Example 17, 6′-(3-Amino-propyl)-1-(3-amino-2(S)-hydroxy-propionyl)-sisomicin], the MIC in the assay on E. coli ATCC 25922 [1] (setting [6]) is under 1 µg/mL; in the assay on P. aeruginosa ATCC 27853 [2] (setting [5]), 1 to 16 µg/mL (≈ 1.69 to 27 µM); in the assay with P. aeruginosa ATCC 27853 [2] (setting [7]) it was 1 to 16 µg/mL (≈ 1.69 to 27 µM). Moreover, the “ED50/MIC E. Coli” value with E. coli ATCC 25922 [3] came out at 1. Further, the “ED50/MIC P. aeruginosa” value in the assay on P. aeruginosa ATCC 27853 [4] is reported as 5.
Take `CN[C@@H]1[C@@H](O)[C@@H](O[C@@H]2[C@@H](O)[C@H](O[C@H]3OC(CNCC(O)CN)=CC[C@H]3N)[C@@H](N)C[C@H]2NC(=O)[C@@H](O)CN)OC[C@]1(C)O` (stereo partly drawn) [Example 22, 6′-(3-Amino-2-hydroxy-propyl)-1-(3-amino-2(S)-hydroxy-propionyl)-sisomicin]: the MIC in the assay with E. coli ATCC 25922 [1] (setting [6]), in the assay on P. aeruginosa ATCC 27853 [2] (setting [5]) and in the assay with P. aeruginosa ATCC 27853 [2] (setting [7]) was 1 to 16 µg/mL (≈ 1.65 to 26.3 µM) in each case. In addition, the “ED50/MIC E. Coli” value with E. coli ATCC 25922 [3] is listed as 1. Besides, the “ED50/MIC P. aeruginosa” value in the assay with P. aeruginosa ATCC 27853 [4] worked out at 8.
For the molecule `CN[C@@H]1[C@@H](O)[C@@H](O[C@@H]2[C@@H](O)[C@H](O[C@H]3OC(CNCCCN)=CC[C@H]3N)[C@@H](N)C[C@H]2NC(=O)C2(O)CNC2)OC[C@]1(C)O` [Example 57], the minimum inhibitory concentration (MIC) in the assay on E. coli ATCC 25922 [1] (setting [6]), in the assay with P. aeruginosa ATCC 27853 [2] (setting [5]) and in the assay on P. aeruginosa ATCC 27853 [2] (setting [7]) was under 1 µg/mL in each case. Also, the “ED50/MIC E. Coli” value in the assay on E. coli ATCC 25922 [3] is given as 2. The “ED50/MIC P. aeruginosa” value in the assay with P. aeruginosa ATCC 27853 [4] came out at 14.
With `CN[C@@H]1[C@@H](O)[C@@H](O[C@@H]2[C@@H](O)[C@H](O[C@H]3OC(CN)=CC[C@H]3NC(=N)N)[C@@H](N)C[C@H]2NC(=O)[C@@H](O)CCN)OC[C@]1(C)O` [Example 103, 2′-Guanidinium-1-(4-amino-2(S)-hydroxy-butyryl)-sisomicin], the MIC with E. coli ATCC 25922 [1] (setting [6]), in the assay on P. aeruginosa ATCC 27853 [2] (setting [5]) and with P. aeruginosa ATCC 27853 [2] (setting [7]) was under 1 µg/mL each time. The “ED50/MIC E. Coli” value in the assay with E. coli ATCC 25922 [3] was found to be 2. Also, the “ED50/MIC P. aeruginosa” value with P. aeruginosa ATCC 27853 [4] is given as 6.
Regarding gentamicin [reference compound], the “MIC E. coli” value in the assay on E. coli ATCC 25922 [1] (Table 2) is “A (MIC's of 1.0 μg/mL or less = A)”. Besides, the “MIC P. aeruginosa” value against P. aeruginosa ATCC 27853 [2] (Table 2) was “A (MIC's of 1.0 μg/mL or less = A)”. Also, the “ED50/MIC E. Coli” value in the assay with E. coli ATCC 25922 [3] was determined as 2.4. Moreover, the “ED50/MIC P. aeruginosa” value in the assay on P. aeruginosa ATCC 27853 [4] was determined as 12.
